Data set [1] concerns experimental muscular dystrophy in hamster. The conditions noted are these: Journal of Pharmacobiodynamics, 1987, 10, 678; cited from earlier work.
In the next data set the target is T1, 20S Proteasome (Oryctolagus cuniculus, UniProt G1T4Q9).
T1 sequence (G1T4Q9 60-263): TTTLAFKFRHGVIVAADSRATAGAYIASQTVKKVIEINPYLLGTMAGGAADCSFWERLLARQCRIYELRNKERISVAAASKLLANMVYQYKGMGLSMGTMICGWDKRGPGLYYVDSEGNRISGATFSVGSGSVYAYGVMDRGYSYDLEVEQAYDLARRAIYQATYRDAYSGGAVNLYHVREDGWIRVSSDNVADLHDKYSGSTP
Nature of the data set: 20S Proteasome Assay. Type of data set: biochemical, Rabbit. The note with it: read-out: 20S Prot IC50. On the procedure:
25 μl of a reaction buffer containing 400 μM of the fluorogenic substrate Suc-Leu-Leu-Val-Tyr-AMC (Bachem) are dispensed per well of a white microtiter plate. Test compounds dissolved in 0.5 μl DMSO are added. To start the reaction; 25 μl of reaction buffer containing 35 ng of enzyme (20S Proteasome, Rabbit, Calbiochem) are added. The increase in fluorescence (excitation at 360 nm; emission at 440 nm) is measured over 30 min at 30° C. at 30″. The IC50's are then determined from the slopes.

Another data set deals with T2, human μ-calpain (Homo sapiens, UniProt P07384).
T2 construct: purchased Calbiochem
T2 sequence (P07384 1-714): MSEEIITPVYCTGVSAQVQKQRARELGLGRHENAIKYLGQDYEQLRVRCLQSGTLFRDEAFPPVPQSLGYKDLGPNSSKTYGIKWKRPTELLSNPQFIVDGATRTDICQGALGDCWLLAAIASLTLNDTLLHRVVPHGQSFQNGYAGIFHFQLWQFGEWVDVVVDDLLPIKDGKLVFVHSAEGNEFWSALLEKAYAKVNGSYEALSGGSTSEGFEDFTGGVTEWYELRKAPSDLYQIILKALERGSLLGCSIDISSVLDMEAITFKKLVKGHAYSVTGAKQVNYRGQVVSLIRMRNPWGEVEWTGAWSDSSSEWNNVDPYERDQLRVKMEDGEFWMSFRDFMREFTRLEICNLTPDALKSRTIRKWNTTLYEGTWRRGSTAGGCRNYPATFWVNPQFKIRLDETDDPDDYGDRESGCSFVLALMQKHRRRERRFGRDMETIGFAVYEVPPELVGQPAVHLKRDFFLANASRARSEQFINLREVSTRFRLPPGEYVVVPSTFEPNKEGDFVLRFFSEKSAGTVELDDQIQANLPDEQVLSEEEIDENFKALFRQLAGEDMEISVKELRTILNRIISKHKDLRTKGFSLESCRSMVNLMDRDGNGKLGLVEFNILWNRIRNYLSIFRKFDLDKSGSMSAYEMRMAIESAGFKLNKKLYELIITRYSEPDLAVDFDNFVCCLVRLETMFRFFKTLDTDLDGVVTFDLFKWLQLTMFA
T2 sequence (P04632 1-268 partner): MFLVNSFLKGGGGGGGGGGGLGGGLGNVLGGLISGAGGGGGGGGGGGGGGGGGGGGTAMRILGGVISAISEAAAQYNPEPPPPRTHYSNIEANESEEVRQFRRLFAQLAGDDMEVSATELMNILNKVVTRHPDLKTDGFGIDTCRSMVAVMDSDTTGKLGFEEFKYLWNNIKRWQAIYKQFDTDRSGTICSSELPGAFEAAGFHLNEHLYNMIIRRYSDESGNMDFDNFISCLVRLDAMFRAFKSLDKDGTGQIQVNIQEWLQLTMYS
Nature of the data set: Enzymatic Calpain Inhibition Assay. It is filed as biochemical. The conditions noted are these: read-out: Calp I IC50. On the procedure: The Ki value was also determined in some cases. These criteria were used to measure the inhibitory effect of the compounds (I) on calpain I, calpain II and cathepsin B.
The inhibitory properties of calpain inhibitors are tested in 100 μl of a buffer containing 100 mM imidazole pH 7.5, 5 mM L-Cystein-HCl, 5 mM CaCl2, 250 μM of the calpain fluorogenic substrate Suc-Leu-Tyr-AMC (Sigma) (Sasaki et al., J. Biol. Chem., 1984, 259, 12489-12949) dissolved in 2.5 μl DMSO and 0.5 μg of human μ-calpain (Calbiochem). The inhibitors dissolved in 1 μl DMSO are added to the reaction buffer. The fluorescence of the cleavage product 7-amino-4-methylcoumarin (AMC) is followed in a SPECTRAmax GEMINI XS (Molecular Device) fluorimeter at λex=360 nm and λem=440 nm at 30° C. during 30 min at intervals of 30 sec in 96-well plates (Greiner). The initial reaction velocity at different inhibitor concentrations is plotted against the inhibitor concentration and the IC50 values determined graphically.

Data set [2] has as its system cellular calpains in C2C12 myoblasts. Nature of the data set: Calpain Inhibition Assay in C2C12 Myoblasts. It is filed as cell-based. The conditions noted are these: read-out: Calp I IC50 Myoblast. How it is done:
This assay is aimed at monitoring the ability of the substance to inhibit cellular calpains. C2C12 myoblasts are grown in 96-well plates in growth medium (DMEM, 20% foetal calf serum) until they reach confluency. The growth medium is then replaced by fusion medium (DMEM, 5% horse serum). 24 hours later the fusion medium is replaced by fusion medium containing the test substances dissolved in 1 μl DMSO. After 2 hours of incubation at 37° C. the cells are loaded with the calpain fluorogenic substrate Suc-Leu-Tyr-AMC at 400 μM in 50 μl of a reaction buffer containing 135 mM NaCl; 5 mM KCl; 4 mM CaCl2; 1 mM MgCl2; 10 mM Glucose; 10 mM HEPES pH 7.25 for 20 min at room temperature. The calcium influx, necessary to activate the cellular calpains, is evoked by the addition of 50 μl reaction buffer containing 20 μM of the calcium ionophore Br-A-23187 (Molecular Probes). The fluorescence of the cleavage product AMC is measured as described above during 60 min at 37° C. at intervals of 1 min. The IC50 values are determined as described above. Comparison of the IC50 determined in the enzymatic calpain inhibition assay to the IC50 determined in the C2C12 myoblasts calpain inhibiton assay, allows to evaluate the cellular uptake or the membrane permeability of the substance.

The structures appear in SMILES notation.

In the case of `CCOC(=O)[C@H]1O[C@@H]1C(=O)N[C@@H](CC(C)C)C(=O)NCCC(C)C` [Example E-64-d], the life-prolonging effect entry in data set [1] is on record as “life-prolonging effect”.

A word on the IC50: it is the concentration that inhibits the measured activity by half. The term melting point denotes the temperature of the solid-liquid transition. As to `CCNC(=O)C(=O)C(Cc1ccc(Cl)cc1)NC(=O)C(NC(=O)C(Cc1ccccc1)NC(=O)CCc1cccs1)C(C)C` (centres unmarked) [Example 3], the melting point lay within 244 to 246 °C. For the same compound, the half-inhibitory concentration (IC50) at 20S Proteasome came to 42 nM. In addition, the concentration for half-maximal inhibition (IC50) on human μ-calpain came to 24 nM. Besides, in data set [2], the IC50 was 20 nM.

The record behind these values is patent US20080058324A1, “Alpha-Keto Carbonyl Calpain Inhibitors” (SANTHERA PHARMACEUTICALS (SCHWEIZ) AG, priority 2004, published 2008).
